Source: ChEMBL document CHEMBL1201862, “PubChem BioAssay data set” (2004)
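Assay format: 96-well plates, 48-hour exposure. The concentration for 50% growth inhibition is given as GI50.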 Calls of active or inactive are those of the source. Cut-off read from the data, not from the text of the source: active = GI50 up to about 1.1 µM and inactive = higher.

Tests used:
Assay in all cases: NCI-60 cell line screen, 48 h
HCT-15 = test system: HCT-15
MCF7 = test system: MCF7
HCC 2998 = test system: HCC 2998
SNB-19 = test system: SNB-19
UACC-62 = test system: UACC-62
NCI-H460 = test system: NCI-H460
NCI/ADR-RES = test system: NCI/ADR-RES
HT-29 = test system: HT-29
Malme-3M = test system: Malme-3M
SR = test system: SR
Hs-578T = test system: Hs-578T
HCT-116 = test system: HCT-116
OVCAR-3 = test system: OVCAR-3
IGROV-1 = test system: IGROV-1
NCI-H23 = test system: NCI-H23
OVCAR-5 = test system: OVCAR-5
SN12C = test system: SN12C
SK-OV-3 = test system: SK-OV-3
HL-60 = test system: HL-60
BT-549 = test system: BT-549

| Compound | GI50 (HCT-15) [µM] | GI50 (MCF7) | GI50 (HCC 2998) | GI50 (SNB-19) | GI50 (UACC-62) | GI50 (NCI-H460) | GI50 (NCI/ADR-RES) | GI50 (HT-29) | GI50 (Malme-3M) | GI50 (SR) | GI50 (Hs-578T) | GI50 (HCT-116) | GI50 (OVCAR-3) | GI50 (IGROV-1) | GI50 (NCI-H23) | GI50 (OVCAR-5) | GI50 (SN12C) | GI50 (SK-OV-3) | GI50 (HL-60) | GI50 (BT-549) |
| --- | --- | --- | --- | --- | --- | --- | --- | --- | --- | --- | --- | --- | --- | --- | --- | --- | --- | --- | --- | --- |
| CC1=NN(C(=O)CC(=O)Nc2ccc(C)cc2)C(=O)C1/N=N\c1ccc(S(=O)(=O)c2ccc(/N=N/C3C(=O)N(C(=O)CC(=O)Nc4ccc(C)cc4)N=C3C)cc2)cc1 (stereo not given) | 44.6 | > 100 µM (inactive) | 83.6 µM (inactive) | > 100 µM (inactive) | 65.9 µM (inactive) | 38.5 µM (inactive) | > 100 µM (inactive) | > 10 µM (inactive) | 67 µM (inactive) | 27.5 µM (inactive) | 93.8 µM (inactive) | 43.4 µM (inactive) | 64.6 µM (inactive) | 28.4 µM (inactive) | > 100 µM (inactive) | > 100 µM (inactive) | 50.1 µM (inactive) | 72.4 µM (inactive) | 16.4 µM (inactive) | > 100 µM (inactive) |
| O=[N+]([O-])C(=C/c1cccs1)/C(=C\c1cccs1)[N+](=O)[O-] | 0.199 | 0.676 µM (active) | 1.21 µM (inactive) | 1.98 µM (inactive) | 0.778 µM (active) | 0.597 µM (active) | 0.54 µM (active) | 1.12 µM (inactive) | 1.03 µM (active) | 0.0719 µM (active) | 1.13 µM (inactive) | 1.11 µM (active) | 1.85 µM (inactive) | 0.774 µM (active) | 0.787 µM (active) | 1.68 µM (inactive) | 0.547 µM (active) | 2.89 µM (inactive) | 0.0246 µM (active) | 1.35 µM (inactive) |
| O=C(Nc1cccc2cnccc12)c1cc2c(cc1Cl)Sc1nccn1S2(=O)=O | 8.71 | 5.36 µM (inactive) | 15.7 µM (inactive) | 17.9 µM (inactive) | 12.4 µM (inactive) | 7.82 µM (inactive) | 14.4 µM (inactive) | 14.6 µM (inactive) | 19.1 µM (inactive) | 3.28 µM (inactive) | 20.1 µM (inactive) | 4.74 µM (inactive) | 19.9 µM (inactive) | 15.8 µM (inactive) | 6.67 µM (inactive) | 25.2 µM (inactive) | 14.4 µM (inactive) | 40 µM (inactive) | 4.62 µM (inactive) | 10.4 µM (inactive) |
| CCOC1OC(=O)c2cc3ccc4c(c3c(-c3ccc5c(c3)OCO5)c21)OCO4 (stereo not given) | 4.85 | 9.57 µM (inactive) | 2.26 µM (inactive) | 8.95 µM (inactive) | 6.01 µM (inactive) | 3.56 µM (inactive) | 5.13 µM (inactive) | 4.76 µM (inactive) | > 100 µM (inactive) | 2.04 µM (inactive) | 3.2 µM (inactive) | 2.43 µM (inactive) | 0.417 µM (active) | 4.6 µM (inactive) | 3.72 µM (inactive) | 14.5 µM (inactive) | 10.9 µM (inactive) | 1.42 µM (inactive) | 9.91 µM (inactive) | 4.28 µM (inactive) |
| CC[C@]1(O)CC(OC2CC(N(C)C)C(O)C(C)O2)c2c(cc3c(c2O)C(=O)c2c(O)cccc2C3=O)[C@@H]1C(=O)OC (stereo not given in full) | 0.244 | 0.292 µM (active) | 0.21 µM (active) | 0.328 µM (active) | 0.196 µM (active) | 0.045 µM (active) | 0.269 µM (active) | 0.107 µM (active) | 0.245 µM (active) | 0.0538 µM (active) | 0.745 µM (active) | 0.0455 µM (active) | 0.493 µM (active) | 0.119 µM (active) | 0.272 µM (active) | 0.718 µM (active) | 0.178 µM (active) | 0.333 µM (active) | 0.249 µM (active) | 1.16 µM (inactive) |
| CSC1=NC(=O)CCN1C1OCC(OC(C)=O)C(OC(C)=O)C1OC(C)=O (stereo not given) | 18.5 | 63.8 µM (inactive) | 21.8 µM (inactive) | 16.3 µM (inactive) | 40.6 µM (inactive) | 10.4 µM (inactive) | 15.8 µM (inactive) | 17.9 µM (inactive) | 14.3 µM (inactive) | 4.51 µM (inactive) | 12.6 µM (inactive) | 5.45 µM (inactive) | 12.6 µM (inactive) | 15.1 µM (inactive) | 20.8 µM (inactive) | 19.6 µM (inactive) | 20.7 µM (inactive) | 15.2 µM (inactive) | 2.99 µM (inactive) | 15.1 µM (inactive) |
